What is called inhibition is how much of the control response was suppressed. Broadly, the % Inhibition is the change of the read-out against control, counted positive when it falls.

Structures are written as SMILES.

The first assay deals with T1, human glycogen phosphorylase a (Homo sapiens, UniProt P06737).
T1 sequence (P06737 1-847): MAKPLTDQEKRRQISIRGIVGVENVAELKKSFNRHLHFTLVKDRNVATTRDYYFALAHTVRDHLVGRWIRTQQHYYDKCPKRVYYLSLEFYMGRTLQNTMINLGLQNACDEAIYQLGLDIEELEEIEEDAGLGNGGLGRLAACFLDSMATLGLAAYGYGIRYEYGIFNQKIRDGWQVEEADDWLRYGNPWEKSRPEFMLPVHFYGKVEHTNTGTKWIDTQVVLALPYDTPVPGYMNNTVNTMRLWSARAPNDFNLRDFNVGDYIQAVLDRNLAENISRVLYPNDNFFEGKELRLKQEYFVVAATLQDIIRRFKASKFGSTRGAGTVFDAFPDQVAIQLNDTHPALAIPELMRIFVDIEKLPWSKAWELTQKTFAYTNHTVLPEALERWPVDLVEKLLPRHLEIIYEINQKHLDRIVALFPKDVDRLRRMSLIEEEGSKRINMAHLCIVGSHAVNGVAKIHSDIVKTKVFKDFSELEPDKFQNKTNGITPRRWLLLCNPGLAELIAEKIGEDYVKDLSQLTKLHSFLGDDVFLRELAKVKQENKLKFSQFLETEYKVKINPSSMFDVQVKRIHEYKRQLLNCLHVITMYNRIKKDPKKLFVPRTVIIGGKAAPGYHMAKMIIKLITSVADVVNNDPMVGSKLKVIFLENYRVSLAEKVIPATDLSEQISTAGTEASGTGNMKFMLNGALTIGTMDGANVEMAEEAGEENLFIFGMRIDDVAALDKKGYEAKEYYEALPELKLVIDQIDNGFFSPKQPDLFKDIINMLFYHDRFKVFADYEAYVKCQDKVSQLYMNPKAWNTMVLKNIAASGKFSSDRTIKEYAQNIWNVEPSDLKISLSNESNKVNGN
The assay can be described thus: Glycogen phosphorylase a activity test. Type of assay: biochemical. Particulars: 10 μM test substance; GPa measured in reverse direction (glycogen synthesis from glucose 1-phosphate). Here is the method:
Glycogen Phophorylase a Activity Test
The effect of compounds on the activity of the active form of glycogen phosphorylase (GPa) was measured in the reverse direction by monitoring the synthesis of glycogen from glucose 1-phosphate by determining the release of inorganic phosphate. All reactions were carried out as duplicate determinations in 96-well microtiter plates (half area plates, Costar No. 3696), and the change in absorption as a consequence of the formation of the reaction product was measured at the wavelength specified below in a Multiskan Ascent Elisa Reader (Lab Systems, Finland).
In order to measure the GPa enzyme activity in the reverse direction, the conversion of glucose 1-phosphate to glycogen and inorganic phosphate was measured by the general method of Engers et al. (Engers HD, Shechosky S, Madsen NB, Can J Biochem 1970 July;48(7):746–754) with the following modifications: human glycogen phosphorylase a (for example containing 0.76 mg of protein/ml (Aventis Pharma Deutschland GmbH), dissolved in buffer solution E (25 mM P-glycerophosphate, pH 7.0, 1 mM EDTA and 1 mM dithiotreitol) was diluted to a concentration of 10 μg of protein/ml with buffer T (50 mM Hepes, pH 7.0, 100 mM KCl, 2.5 mM EDTA, 2.5 mM MgCl2.6H2O) and addition of 5 mg/ml of glycogen. Test substances were prepared as a 10 mM solution in DMSO and diluted to 50 μM with buffer solution T. To 10 μl of this solution were added 10 μl of 37.5 mM glucose dissolved in buffer solution T and 5 mg/ml of glycogen, and also 10 μl of a solution of human glycogen phosphorylase a (10 μg of protein/ml) and 20 μl of 2.5 mM glucose 1-phosphate. The base value of the activity of glycogen phosphorylase a in the absence of test substance was determined by adding 10 μl of buffer solution T (0.1% DMSO). The mixture was incubated at room temperature for 40 minutes and the released inorganic phosphate was determined by means of the general method of Drueckes et al. (Drueckes P, Schinzel R, Palm D, Anal Biochem 1995 Sep. 1;230(1):173–177) with the following modifications: 50 μl of a stop solution of 7.3 mM of ammonium molybdate, 10.9 mM of zinc acetate, 3.6% of ascorbic acid, 0.9% of SDS are added to 50 μl of the enzyme mixture. After 60 minutes of incubation at 45° C., the absorption was measured at 820 nm. To determine the background absorption, the stop solution was added immediately after the addition of the glucose 1-phosphate solution in a separate reaction.
Compound `COc1ccc(NC(C)=O)cc1NC(=O)NC(=O)c1cc(F)c(F)cc1Cl` [Example 1, N-{3-[3-(2-Chloro-4,5-difluorobenzoyl)ureido]-4-methoxyphenyl}acetamide] registered an inhibition at 10 µM of 99%.

For `COC(=O)C(=O)Nc1ccc(OC)c(NC(=O)NC(=O)c2cc(F)c(F)cc2Cl)c1` [Example 2], the “% Inhibition at 10 μM” value was 99%.

Regarding `COC(=O)CC(=O)Nc1ccc(OC)c(NC(=O)NC(=O)c2cc(F)c(F)cc2Cl)c1` [Example 3], the “% Inhibition at 10 μM” value amounted to 104%.

As for `COC(=O)CCC(=O)Nc1ccc(OC)c(NC(=O)NC(=O)c2cc(F)c(F)cc2Cl)c1` [Example 4], the “% Inhibition at 10 μM” value is listed as 97%.

As for `COc1ccc(NC(=O)C(=O)O)cc1NC(=O)NC(=O)c1cc(F)c(F)cc1Cl` [Example 5], the “% Inhibition at 10 μM” value is reported as 99%.

With `COc1ccc(NC(=O)CC(=O)O)cc1NC(=O)NC(=O)c1cc(F)c(F)cc1Cl` [Example 6], the “% Inhibition at 10 μM” value is reported as 100%.

In the case of `COc1ccc(NC(=O)CCC(=O)O)cc1NC(=O)NC(=O)c1cc(F)c(F)cc1Cl` [Example 7], the “% Inhibition at 10 μM” value was found to be 100%.

On to `COc1ccc(NC(=O)CCC(N)=O)cc1NC(=O)NC(=O)c1cc(F)c(F)cc1Cl` [Example 8], for which the “% Inhibition at 10 μM” value came to 100%.

In the case of `COC(=O)CC(=O)Nc1cc(NC(=O)NC(=O)c2cc(F)c(F)cc2Cl)c(C)cc1OC` [Example 10], the “% Inhibition at 10 μM” value was 95%.

As to `COc1cc(C)c(NC(=O)NC(=O)c2cc(F)c(F)cc2Cl)cc1NC(=O)CC(=O)O` [Example 11], the “% Inhibition at 10 μM” value was 96%.

For `COc1cc(C)c(NC(=O)NC(=O)c2cc(F)c(F)cc2Cl)cc1NC(=O)CCC(=O)O` [Example 12], the “% Inhibition at 10 μM” value is 90%.

On to `COc1cc(C)c(NC(=O)NC(=O)c2cc(F)c(F)cc2Cl)cc1NC(=O)C(=O)O` [Example 13], for which the “% Inhibition at 10 μM” value came to 94%.

As for `COc1cc(C)c(NC(C)=O)cc1NC(=O)NC(=O)c1cc(F)c(F)cc1Cl` [Example 14], the “% Inhibition at 10 μM” value amounted to 91%.

Turning to `COC(=O)C(=O)Nc1cc(NC(=O)NC(=O)c2cc(F)c(F)cc2Cl)c(OC)cc1C` [Example 15], the “% Inhibition at 10 μM” value came out at 101%.

Regarding `COC(=O)CC(=O)Nc1cc(NC(=O)NC(=O)c2cc(F)c(F)cc2Cl)c(OC)cc1C` [Example 16], the “% Inhibition at 10 μM” value came to 95%.

For `COc1cc(C)c(NC(=O)C(=O)O)cc1NC(=O)NC(=O)c1cc(F)c(F)cc1Cl` [Example 17], the “% Inhibition at 10 μM” value came to 100%.

For the compound `COc1cc(C)c(NC(=O)CC(=O)O)cc1NC(=O)NC(=O)c1cc(F)c(F)cc1Cl` [Example 18], the “% Inhibition at 10 μM” value stood at 99%.

Take `COc1cc(C(=O)O)c(NC(C)=O)cc1NC(=O)NC(=O)c1cc(F)c(F)cc1Cl` [Example 19]: the “% Inhibition at 10 μM” value is 97%.

`CCOC(=O)c1cc(OC)c(NC(=O)NC(=O)c2cc(F)c(F)cc2Cl)cc1NC(C)=O` [Example 20]: the “% Inhibition at 10 μM” value turned out to be 95%.

For the compound `COc1cc(C(=O)O)c(NC(=O)CC(=O)O)cc1NC(=O)NC(=O)c1cc(F)c(F)cc1Cl` [Example 22], the “% Inhibition at 10 μM” value was determined as 96%.

Take `COc1cc(C(=O)O)c(NC(=O)C(=O)O)cc1NC(=O)NC(=O)c1cc(F)c(F)cc1Cl` [Example 25]: the “% Inhibition at 10 μM” value was 95%.

`COc1cc(C(=O)O)c(NC(=O)CCC(=O)O)cc1NC(=O)NC(=O)c1cc(F)c(F)cc1Cl` [Example 26]: the “% Inhibition at 10 μM” value is on record as 97%.

Consider `COCC(=O)Nc1ccc(OC)c(NC(=O)NC(=O)c2cc(F)c(F)cc2Cl)c1` [Example 27], for which the “% Inhibition at 10 μM” value is 98%.

With `COc1ccc(NC(=O)c2cccnc2)cc1NC(=O)NC(=O)c1cc(F)c(F)cc1Cl` [Example 28], the “% Inhibition at 10 μM” value was 89%.

As for `COc1ccc(NC(=O)c2cccs2)cc1NC(=O)NC(=O)c1cc(F)c(F)cc1Cl` [Example 29], the “% Inhibition at 10 μM” value is listed as 98%.

For `CCC(=O)Nc1ccc(OC)c(NC(=O)NC(=O)c2cc(F)c(F)cc2Cl)c1` [Example 30], the “% Inhibition at 10 μM” value worked out at 101%.

As to `COc1ccc(NC(=O)C2CC2)cc1NC(=O)NC(=O)c1cc(F)c(F)cc1Cl` [Example 31], the “% Inhibition at 10 μM” value is listed as 98%.

Take `COc1ccc(NC(=O)c2ccco2)cc1NC(=O)NC(=O)c1cc(F)c(F)cc1Cl` [Example 32]: the “% Inhibition at 10 μM” value turned out to be 102%.

Regarding `COc1ccc(NC(=O)C2CCCC2)cc1NC(=O)NC(=O)c1cc(F)c(F)cc1Cl` [Example 33], the “% Inhibition at 10 μM” value is listed as 96%.

For the compound `COc1ccc(NC(=O)c2ccccc2OC)cc1NC(=O)NC(=O)c1cc(F)c(F)cc1Cl` [Example 34], the “% Inhibition at 10 μM” value turned out to be 97%.

For the compound `CC=CC(=O)Nc1ccc(OC)c(NC(=O)NC(=O)c2cc(F)c(F)cc2Cl)c1` [Example 35], the “% Inhibition at 10 μM” value turned out to be 99%.

As to `COc1ccc(NC(=O)c2ccccc2F)cc1NC(=O)NC(=O)c1cc(F)c(F)cc1Cl` [Example 36], the “% Inhibition at 10 μM” value was found to be 101%.

`COc1ccc(NC(=O)Cc2ccccc2)cc1NC(=O)NC(=O)c1cc(F)c(F)cc1Cl` [Example 37]: the “% Inhibition at 10 μM” value is 101%.

In the case of `COc1ccc2oc(C(=O)Nc3ccc(OC)c(NC(=O)NC(=O)c4cc(F)c(F)cc4Cl)c3)cc2c1` [Example 38], the “% Inhibition at 10 μM” value stood at 102%.

On to `COc1ccc(NC(=O)c2cc3cc(Cl)ccc3o2)cc1NC(=O)NC(=O)c1cc(F)c(F)cc1Cl` [Example 39], for which the “% Inhibition at 10 μM” value was determined as 101%.

As to `COc1ccc(NC(=O)c2ccc(F)cc2)cc1NC(=O)NC(=O)c1cc(F)c(F)cc1Cl` [Example 40], the “% Inhibition at 10 μM” value was 98%.

Turning to `COc1cccc(CC(=O)Nc2ccc(OC)c(NC(=O)NC(=O)c3cc(F)c(F)cc3Cl)c2)c1` [Example 41], the “% Inhibition at 10 μM” value was 104%.

`COc1ccc(NC(=O)C(=O)c2c[nH]c3ccccc23)cc1NC(=O)NC(=O)c1cc(F)c(F)cc1Cl` [Example 42]: the “% Inhibition at 10 μM” value worked out at 83%.

Take `COc1ccc(NC(=O)C2CCC2)cc1NC(=O)NC(=O)c1cc(F)c(F)cc1Cl` [Example 44]: the “% Inhibition at 10 μM” value stood at 101%.

For `COc1ccc(NC(=O)c2cccc(F)c2)cc1NC(=O)NC(=O)c1cc(F)c(F)cc1Cl` [Example 45], the “% Inhibition at 10 μM” value came to 97%.

In the case of `C=CCCC(=O)Nc1ccc(OC)c(NC(=O)NC(=O)c2cc(F)c(F)cc2Cl)c1` [Example 46], the “% Inhibition at 10 μM” value is 102%.

In the case of `CCCCC(=O)Nc1ccc(OC)c(NC(=O)NC(=O)c2cc(F)c(F)cc2Cl)c1` [Example 47], the “% Inhibition at 10 μM” value was 105%.

In the case of `CCOC(=O)CCC(=O)Nc1ccc(OC)c(NC(=O)NC(=O)c2cc(F)c(F)cc2Cl)c1` [Example 48], the “% Inhibition at 10 μM” value is given as 97%.

As for `COc1ccc(NC(=O)COC(C)=O)cc1NC(=O)NC(=O)c1cc(F)c(F)cc1Cl` [Example 49], the “% Inhibition at 10 μM” value was 99%.

In the case of `COc1ccc(NC(=O)c2ccccc2OC(F)(F)F)cc1NC(=O)NC(=O)c1cc(F)c(F)cc1Cl` [Example 51], the “% Inhibition at 10 μM” value is reported as 92%.

Staying with this assay, now noted: 10 μM test substance; GPa measured in reverse direction (glycogen synthesis from glucose 1-phosphate); 10 µM.
`COc1ccc(NC(=O)C(C)C)cc1NC(=O)NC(=O)c1cc(F)c(F)cc1Cl` [Example 43]: the “% Inhibition at 10 μM” value is listed as 98%.

Take `COc1ccc(NC(=O)C(C)C)cc1NC(=O)NC(=O)c1cc(F)c(F)cc1Cl` [Example 50]: the “% Inhibition at 10 μM” value is on record as 94%.

For the origin of these results see patent publication US7179941B2, “Carbonylamino-substituted acyl phenyl urea derivatives, process for their preparation and their use” (Sanofi-Aventis Deutschland GmbH, priority 2003, dated 2007).
